Measurements from paper PMC11364104, “Discovery of SARS-CoV-2 papain-like protease (PL^pro) inhibitors with efficacy in a murine infection model” (Science Advances, 2024).
Like-named read-outs stand apart in the source and are kept apart here.

Columns and labels:
SARS-CoV-2 = assay: microbe, parasite or virus in culture; type: cell-based
in vitro [1] = settings: dog, MDCK
in vitro [2] = settings: human, hepatocytes
SARS-CoV-2 PL^pro = SARS-CoV-2 PL^pro (Severe acute respiratory syndrome coronavirus 2, UniProt P0DTD1); assay: PLpro enzymatic assay (Z-RLRGG-AMC substrate cleavage); type: biochemical; settings: geometric mean of at least three replicates
[3] = RRCK passive permeability; settings: dog, MDCK
[4] = Metabolic stability in cryopreserved human hepatocytes
[5] = Severe acute respiratory syndrome coronavirus 2, Vero C1008, read-out: SARS-CoV-2 Vero E6 EC50 (nM)*

For `Cc1ccc(N)cc1C(=O)N[C@H](C)c1cccc2ccccc12` [Compound 1], the EC50 (SARS-CoV-2; Severe acute respiratory syndrome coronavirus 2, Vero C1008, read-out: EC50, cytopathic effect (CPE)) was 68200 nM, the Papp (in vitro [1]) was 45.6 ×10⁻⁶ cm/s and the hepatocyte CLint (in vitro [2]) was 20.9 µL/min/1e6 cells.
With `Cc1ccccc1C(=O)N[C@H](C)c1cc(-c2cnn(C)c2)nc2ccccc12` [Compound 2] the Ki (SARS-CoV-2 PL^pro) was 116 nM, the EC50 (SARS-CoV-2; [5]) was 1580 nM and the Papp [3] was 42 ×10⁻⁶ cm/s. It also gave a hepatocyte CLint [4] of 13.9 µL/min/1e6 cells.
For `Cc1ccc(N2CCN(C)CC2)cc1C(=O)N[C@H](C)c1cc(-c2cnn(C)c2)nc2ccccc12` [Compound 3], the EC50 (SARS-CoV-2; [5]) was 652 nM, the Papp [3] was 41.9 ×10⁻⁶ cm/s and the hepatocyte CLint [4] was 12.8 µL/min/1e6 cells.
